Measured values reported in PubChem BioAssay AID1259407 (Chemical Carcinogenesis Research Information System (CCRIS), 2018).
The source made the active and inactive calls. The rule behind the calls is not given here.

Test system: CCRIS mutagenicity, Ames/micronucleus/aberration tests
Assay: CCRIS mutagenicity studies
[1] = Test System: AMES SALMONELLA TYPHIMURIUM, Strain/Indicator: TA97, Metabolic Activation: NONE, Method: STANDARD PLATE
[2] = Test System: AMES SALMONELLA TYPHIMURIUM, Strain/Indicator: TA97, Metabolic Activation: RAT, LIVER, S-9, AROCLOR 1254, Method: STANDARD PLATE
[3] = Test System: AMES SALMONELLA TYPHIMURIUM, Strain/Indicator: TA98, Metabolic Activation: NONE, Method: STANDARD PLATE
[4] = Test System: AMES SALMONELLA TYPHIMURIUM, Strain/Indicator: TA98, Metabolic Activation: RAT, LIVER, S-9, AROCLOR 1254, Method: STANDARD PLATE
[5] = Test System: AMES SALMONELLA TYPHIMURIUM, Strain/Indicator: TA100, Metabolic Activation: NONE, Method: STANDARD PLATE
[6] = Test System: AMES SALMONELLA TYPHIMURIUM, Strain/Indicator: TA100, Metabolic Activation: RAT, LIVER, S-9, AROCLOR 1254, Method: STANDARD PLATE

For CNNc1ccn([C@@H]2O[C@H](CO)[C@@H](O)[C@H]2O)c(=O)n1, the mutagenic call (Test System: CHINESE HAMSTER V-79, Strain/Indicator: V-79/6-THIOGUANINE, Metabolic Activation: NONE, Method: REPLATING) was “active; positive”.
For Cc1ccc(N=CN(C)C=Nc2ccc(C)cc2C)c(C)c1, the mutagenic call [1] was “inactive; negative”, the mutagenic call [2] was “inactive; negative” and the mutagenic call [3] was “inactive; negative”. The mutagenic call [4] was “inactive; negative”, the mutagenic call [5] was “inactive; negative” and the mutagenic call [6] was “inactive; negative”. The mutagenic call (Test System: AMES SALMONELLA TYPHIMURIUM, Strain/Indicator: TA102, Metabolic Activation: NONE, Method: STANDARD PLATE) was “inactive; negative” and the mutagenic call (Test System: AMES SALMONELLA TYPHIMURIUM, Strain/Indicator: TA102, Metabolic Activation: RAT, LIVER, S-9, AROCLOR 1254, Method: STANDARD PLATE) was “inactive; negative”.
In the case of O=C1CSC(=S)N1, the mutagenic call (Test System: AMES SALMONELLA TYPHIMURIUM, Strain/Indicator: TA98, Metabolic Activation: HAMSTER, LIVER, S-9, AROCLOR 1254 (10%), Method: PREINCUBATION) is reported as “inactive; negative”, the mutagenic call (Test System: AMES SALMONELLA TYPHIMURIUM, Strain/Indicator: TA98, Metabolic Activation: NONE, Method: PREINCUBATION) is reported as “inactive; negative” and the mutagenic call (Test System: AMES SALMONELLA TYPHIMURIUM, Strain/Indicator: TA98, Metabolic Activation: RAT, LIVER, S-9, AROCLOR 1254 (10%), Method: PREINCUBATION) is reported as “inactive; negative”. For the same compound, the mutagenic call (Test System: AMES SALMONELLA TYPHIMURIUM, Strain/Indicator: TA100, Metabolic Activation: HAMSTER, LIVER, S-9, AROCLOR 1254 (10%), Method: PREINCUBATION) was “inactive; negative”, the mutagenic call (Test System: AMES SALMONELLA TYPHIMURIUM, Strain/Indicator: TA100, Metabolic Activation: NONE, Method: PREINCUBATION) was “inactive; negative” and the mutagenic call (Test System: AMES SALMONELLA TYPHIMURIUM, Strain/Indicator: TA100, Metabolic Activation: RAT, LIVER, S-9, AROCLOR 1254 (10%), Method: PREINCUBATION) was “inactive; negative”. For the same compound, the mutagenic call (Test System: AMES SALMONELLA TYPHIMURIUM, Strain/Indicator: TA1535, Metabolic Activation: HAMSTER, LIVER, S-9, AROCLOR 1254 (10%), Method: PREINCUBATION) was “inactive; negative”, the mutagenic call (Test System: AMES SALMONELLA TYPHIMURIUM, Strain/Indicator: TA1535, Metabolic Activation: NONE, Method: PREINCUBATION) was “inactive; negative” and the mutagenic call (Test System: AMES SALMONELLA TYPHIMURIUM, Strain/Indicator: TA1535, Metabolic Activation: RAT, LIVER, S-9, AROCLOR 1254 (10%), Method: PREINCUBATION) was “inactive; negative”. The mutagenic call (Test System: AMES SALMONELLA TYPHIMURIUM, Strain/Indicator: TA1537, Metabolic Activation: HAMSTER, LIVER, S-9, AROCLOR 1254 (10%), Method: PREINCUBATION) was “inactive; negative”, the mutagenic call (Test System: AMES SALMONELLA TYPHIMURIUM, Strain/Indicator: TA1537, Metabolic Activation: NONE, Method: PREINCUBATION) was “inactive; negative” and the mutagenic call (Test System: AMES SALMONELLA TYPHIMURIUM, Strain/Indicator: TA1537, Metabolic Activation: RAT, LIVER, S-9, AROCLOR 1254 (10%), Method: PREINCUBATION) was “inactive; negative”.
c1ccc2c(c1)ccc1[nH]c3ccc4ccccc4c3c12 was tested, and the mutagenic call [3] was “inactive; negative”, the mutagenic call (Test System: AMES SALMONELLA TYPHIMURIUM, Strain/Indicator: TA98, Metabolic Activation: RAT, LIVER, S-9, 3-METHYLCHOLANTHRENE, Method: STANDARD PLATE) was “inactive; negative” and the mutagenic call [4] was “inactive; negative”. For the same compound, the mutagenic call (Test System: AMES SALMONELLA TYPHIMURIUM, Strain/Indicator: TA98, Metabolic Activation: RAT, LIVER, S-9, PHENOBARBITAL, Method: STANDARD PLATE) was “inactive; negative”, the mutagenic call (Test System: AMES SALMONELLA TYPHIMURIUM, Strain/Indicator: TA100, Metabolic Activation: MOUSE, LIVER, S-9, BETA-NAPHTHOFLAVONE, Method: STANDARD PLATE) was “inactive; negative” and the mutagenic call (Test System: AMES SALMONELLA TYPHIMURIUM, Strain/Indicator: TA100, Metabolic Activation: MOUSE, LIVER, S-9, PHENOBARBITAL, Method: STANDARD PLATE) was “inactive; negative”. For the same compound, the mutagenic call [5] was “inactive; negative”, the mutagenic call (Test System: AMES SALMONELLA TYPHIMURIUM, Strain/Indicator: TA100, Metabolic Activation: RABBIT, LIVER, S-9, BENZO[A]PYRENE, Method: STANDARD PLATE) was “inactive; negative” and the mutagenic call (Test System: AMES SALMONELLA TYPHIMURIUM, Strain/Indicator: TA100, Metabolic Activation: RAT, LIVER, S-9, PHENOBARBITAL, Method: STANDARD PLATE) was “inactive; negative”. For the same compound, the mutagenic call (Test System: AMES SALMONELLA TYPHIMURIUM, Strain/Indicator: TM677, Metabolic Activation: NONE, Method: PREINCUBATION) was “inactive; negative”, the mutagenic call (Test System: AMES SALMONELLA TYPHIMURIUM, Strain/Indicator: TM677, Metabolic Activation: RAT, LIVER, S-9, 3-METHYLCHOLANTHRENE (1%), Method: PREINCUBATION) was “active; positive” and the mutagenic call (Test System: AMES SALMONELLA TYPHIMURIUM, Strain/Indicator: TM677, Metabolic Activation: RAT, LIVER, S-9, 3-METHYLCHOLANTHRENE (10%), Method: PREINCUBATION) was “inactive; negative”.
CC(Br)C(Br)COP(=O)(OCC(Br)C(C)Br)OCC(Br)C(C)Br (centres undefined) was tested, and the mutagenic call (Test System: AMES SALMONELLA TYPHIMURIUM, Strain/Indicator: TA100, Metabolic Activation: RAT, LIVER, MICROSOMES, PHENOBARBITAL, Method: PREINCUBATION) was “active; positive” and the mutagenic call (Test System: AMES SALMONELLA TYPHIMURIUM, Strain/Indicator: TA100, Metabolic Activation: RAT, LIVER, MICROSOMES, Method: PREINCUBATION) was “active; positive”.
For Nc1nc(OCc2ccccc2)c2[nH]cnc2n1, the mutagenic call (Test System: Mouse lymphoma, Strain/Indicator: L5178Y (tk+/tk-), Metabolic Activation: None, Method: Suspension/plate) was “active; positive” and the mutagenic call (Test System: Mouse lymphoma, Strain/Indicator: L5178Y (tk+/tk-), Metabolic Activation: Rat, Liver, S-9, Aroclor 1254, Method: Suspension/plate) was “inconclusive”.
With CCCCN(N=O)C(CCC)OC(C)=O (centres undefined) the mutagenic call (Test System: UDS RAT UROTHELIAL CELLS, Strain/Indicator: THY INCORP, Metabolic Activation: NONE) was “active; positive”.
For ClCC(Cl)(Cl)Cl, the mutagenic call (End Point: IN VITRO CHROMOSOMAL ABERRATIONS, Test System: CHINESE HAMSTER LUNG FIBROBLAST CELLS (CHL/IU), Metabolic Activation: RAT, LIVER, S-9, PHENOBARBITAL AND 5,6-BENZOFLAVONE) was “active; positive (ploidy)”, the mutagenic call (End Point: IN VITRO CHROMOSOMAL ABERRATIONS, Test System: CHINESE HAMSTER OVARY CELLS, Metabolic Activation: NONE) was “inactive; negative; precipitation occurred at all doses” and the mutagenic call (End Point: IN VITRO CHROMOSOMAL ABERRATIONS, Test System: CHINESE HAMSTER OVARY CELLS, Metabolic Activation: RAT, LIVER, S-9, AROCLOR 1254) was “inactive; negative; precipitation occurred at all doses”. For the same compound, the mutagenic call [1] was “inactive; negative”, the mutagenic call [2] was “active; positive” and the mutagenic call [3] was “active; positive”. For the same compound, the mutagenic call [4] was “active; positive”, the mutagenic call [5] was “active; positive” and the mutagenic call [6] was “active; positive”. For the same compound, the mutagenic call (Test System: AMES SALMONELLA TYPHIMURIUM, Strain/Indicator: TA104, Metabolic Activation: NONE, Method: STANDARD PLATE) was “inactive; negative” and the mutagenic call (Test System: AMES SALMONELLA TYPHIMURIUM, Strain/Indicator: TA104, Metabolic Activation: RAT, LIVER, S-9, AROCLOR 1254, Method: STANDARD PLATE) was “active; positive”.
